The subject of the assay is IL-17 induced IL-6 release from human dermal fibroblasts. The assay can be described thus: Inhibition of IL-17A induced IL-6 release from dermal fibroblast cell line (HDF cell line assay). In kind it is cell-based. The note with it: Incubation Time 5 h. The protocol: Inhibition of IL-17A Induced IL-6 Release from Dermal Fibroblast Cell Line
The purpose of this assay is to test the neutralising ability to IL-17 proteins, in a human primary cell system.
The resultant IL-6 response was then measured using a homogenous time-resolved FRET kit from Cisbio. The kit utilises two monoclonal antibodies, one labelled with Eu-Cryptate (Donor) and the second with d2 or XL665 (Acceptor).
The ability of a compound to inhibit IL-17 induced IL-6 release from human dermal fibroblasts is measured in this assay.
The TrypLE was neutralised using complete medium (45 mL) and the cells were centrifuged at 300×g for 3 minutes. […] The cells were left for a minimum of three hours, at 37° C./5% CO2, to adhere to the plate.
10 μL from the aqueous dilution plate was transferred to the reagent plate containing 30 μL of the diluted cytokines, to give a 2.5% DMSO solution. The compounds were incubated with the cytokine mixtures for 1 h or 5 h at 37° C. After the incubation, 10 μL was transferred to the assay plate, to give a […] solution, then incubated for 18-20 h at 37° C./5% CO2.

Broadly, the IC50 is the concentration needed to halve the response being measured. Turning to `CCS(=O)(=O)CCC(C(=O)N1CC(F)(F)C(F)(F)C1)c1ccc2[nH]c([C@@H](NC(=O)c3nonc3C)C3CCC(F)(F)CC3)nc2c1F` (mixture of isomers) [Example 27, N—[(S)-(4,4-Difluorocyclohexyl){5-[3-(ethylsulfonyl)-1-(3,3,4,4-tetrafluoropyrrolidine-1-carbonyl)propyl]-4-fluoro-1H-benzimidazol-2-yl}methyl]-4-methyl-1,2,5-oxadiazole-3-carboxamide], it took 6.31 nM to reach half-maximal inhibition (IC50).

Regarding `Cc1nonc1C(=O)N[C@H](c1nc2c(F)c(C(CC(F)F)C(=O)N[C@@H](C)C(F)(F)F)ccc2[nH]1)C1CCC(F)(F)CC1` (mixture of isomers) [Example 43, N—{(S)-(4,4-Difluorocyclohexyl)[5-(3,3-difluoro-1-{[(1S)-2,2,2-trifluoro-1-methylethyl]-carbamoyl}propyl)-4-fluoro-1H-benzimidazol-2-yl]methyl}-4-methyl-1,2,5-oxadiazole-3-carboxamide], half-maximal inhibition (IC50) required 50.1 nM.

Compound `Cc1nonc1C(=O)N[C@H](c1nc2c(F)c(C(CC(F)F)C(=O)N[C@H](C)C(F)(F)F)ccc2[nH]1)C1CCC(F)(F)CC1` (mixture of isomers) [Example 46, N—{(S)-(4,4-Difluorocyclohexyl)[5-(3,3-difluoro-1-{[(1R)-2,2,2-trifluoro-1-methylethyl]-carbamoyl}propyl)-4-fluoro-1H-benzimidazol-2-yl]methyl}-4-methyl-1,2,5-oxadiazole-3-carboxamide] gave an IC50 of 398 nM.

As to `CC(C)n1ncnc1C(=O)N[C@H](c1nc2c(F)c(C(CC(F)F)C(=O)NCC(C)(F)F)ccc2[nH]1)C1CCC(F)(F)CC1` (mixture of isomers) [Example 53, N—[(S)-(4,4-Difluorocyclohexyl){5-[1-(2,2-difluoropropylcarbamoyl)-3,3-difluoropropyl]-4-fluoro-1H-benzimidazol-2-yl}methyl]-2-isopropyl-1,2,4-triazole-3-carboxamide], the IC50 is 63.1 nM.

In the case of `CC(C)n1ncnc1C(=O)N[C@H](c1nc2c(F)c(C(CC(F)(F)F)C(=O)NCC(C)(F)F)ccc2[nH]1)C1CCC(F)(F)CC1` (mixture of isomers) [Example 68, N—[(S)-(4,4-Difluorocyclohexyl){5-[1-(2,2-difluoropropylcarbamoyl)-3,3,3-trifluoro-propyl]-4-fluoro-1H-benzimidazol-2-yl}methyl]-2-isopropyl-1,2,4-triazole-3-carboxamide], it took 12.6 nM to reach half-maximal inhibition (IC50).

Compound `CC(C)n1ncnc1C(=O)N[C@H](c1nc2c(F)c(C(CC(F)(F)F)C(=O)NCC(C)(C)F)ccc2[nH]1)C1CCC(F)(F)CC1` (mixture of isomers) [Example 71, N—[(S)-(4,4-Difluorocyclohexyl)(4-fluoro-5-{3,3,3-trifluoro-1-[(2-fluoro-2-methyl-propyl)carbamoyl]propyl}-1H-benzimidazol-2-yl)methyl]-2-isopropyl-1,2,4-triazole-3-carboxamide] had a 50% inhibitory concentration (IC50) of 25.1 nM.

In turn, `CC(F)(F)CNC(=O)C(CC(F)(F)F)c1ccc2[nH]c([C@@H](NC(=O)C3(F)CC3)C3CCC(F)(F)CC3)nc2c1F` (mixture of isomers) [Example 82, N—[(S)-(4,4-Difluorocyclohexyl){5-[1-(2,2-difluoropropylcarbamoyl)-3,3,3-trifluoro-propyl]-4-fluoro-1H-benzimidazol-2-yl}methyl]-1-fluorocyclopropanecarboxamide] gave an IC50 of 25.1 nM.

In turn, `CC(C)n1ncnc1C(=O)N[C@H](c1nc2c(F)c([C@H](CC(C)(F)F)C(=O)NCC(C)(F)F)ccc2[nH]1)C1CCC(F)(F)CC1` (mixture of isomers) [Example 85, N—[(S)-(4,4-Difluorocyclohexyl){5-[1-(2,2-difluoropropylcarbamoyl)-3,3-difluorobutyl]-4-fluoro-1H-benzimidazol-2-yl}methyl]-2-isopropyl-1,2,4-triazole-3-carboxamide] showed an IC50 of 12.6 nM.

Regarding `Cc1nonc1C(=O)N[C@H](c1nc2c(F)c(C(CC(F)(F)F)C(=O)N[C@@H](C)C(F)(F)F)ccc2[nH]1)C1CCC(F)(F)CC1` (mixture of isomers) [Example 15, N—{(S)-(4,4-Difluorocyclohexyl)[4-fluoro-5-(3,3,3-trifluoro-1-{[(1S)-2,2,2-trifluoro-1-methylethyl]carbamoyl}propyl)-1H-benzimidazol-2-yl]methyl}-4-methyl-1,2,5-oxadiazole-3-carboxamide], the 50% inhibitory concentration (IC50) was 20 nM.

Take `Cc1nonc1C(=O)N[C@H](c1nc2c(F)c(C(CC(F)(F)F)C(=O)NCC(F)(F)F)ccc2[nH]1)C1CCC(F)(F)CC1` (mixture of isomers) [Example 33, N—[(S)-(4,4-Difluorocyclohexyl){4-fluoro-5-[3,3,3-trifluoro-1-(2,2,2-trifluoroethyl-carbamoyl)propyl]-1H-benzimidazol-2-yl}methyl]-4-methyl-1,2,5-oxadiazole-3-carboxamide]: the IC50 was 3.98 nM.

`Cc1nonc1C(=O)N[C@H](c1nc2c(F)c(C(CC(F)(F)F)C(=O)NCC(F)F)ccc2[nH]1)C1CCC(F)(F)CC1` (mixture of isomers) [Example 36, N—[(S)-(4,4-Difluorocyclohexyl){5-[1-(2,2-difluoroethylcarbamoyl)-3,3,3-trifluoro-propyl]-4-fluoro-1H-benzimidazol-2-yl}methyl]-4-methyl-1,2,5-oxadiazole-3-carboxamide] showed an IC50 of 31.6 nM.

`Cc1nonc1C(=O)N[C@H](c1nc2c(F)c(C(CC(F)F)C(=O)NCC(F)(F)F)ccc2[nH]1)C1CCC(F)(F)CC1` (mixture of isomers) [Example 40, N—[(S)-(4,4-Difluorocyclohexyl){5-[3,3-difluoro-1-(2,2,2-trifluoroethylcarbamoyl)-propyl]-4-fluoro-1H-benzimidazol-2-yl}methyl]-4-methyl-1,2,5-oxadiazole-3-carboxamide] had an IC50 of 7.94 nM.

Take `O=C(N[C@H](c1nc2c(F)c(C(CC(F)F)C(=O)NCC(F)(F)F)ccc2[nH]1)C1CCC(F)(F)CC1)c1ccccc1F` (mixture of isomers) [Example 49, N—[(S)-(4,4-Difluorocyclohexyl){5-[3,3-difluoro-1-(2,2,2-trifluoroethylcarbamoyl)-propyl]-4-fluoro-1H-benzimidazol-2-yl}methyl]-2-fluorobenzamide]: half-maximal inhibition (IC50) required 31.6 nM.

With `CC(C)(F)CNC(=O)C(CC(F)(F)F)c1ccc2[nH]c([C@@H](NC(=O)c3nonc3C3CC3)C3CCC(F)(F)CC3)nc2c1F` (mixture of isomers) [Example 62, 4-Cyclopropyl-N—[(S)-(4,4-difluorocyclohexyl)(4-fluoro-5-{3,3,3-trifluoro-1-[(2-fluoro-2-methylpropyl)carbamoyl]propyl}-1H-benzimidazol-2-yl)methyl]-1,2,5-oxadiazole-3-carboxamide], it took 5.01 nM to reach half-maximal inhibition (IC50).

`Cc1nonc1C(=O)N[C@H](c1nc2c(F)c([C@H](CC(F)(F)F)C(=O)N[C@@H](C(=O)N(C)C)C(C)C)ccc2[nH]1)C1CCC(F)(F)CC1` (single isomer, unassigned) [Example 11] showed an IC50 of 3.98 nM.

`Cc1nonc1C(=O)N[C@H](c1nc2c(F)c([C@@H](CC(F)(F)F)C(=O)N[C@@H](C(=O)N(C)C)C(C)C)ccc2[nH]1)C1CCC(F)(F)CC1` (single isomer, unassigned) [Example 12] gave an IC50 of 126 nM.

Take `Cc1nonc1C(=O)N[C@H](c1nc2c(F)c([C@H](CC(F)(F)F)C(=O)N[C@@H](C)C(F)(F)F)ccc2[nH]1)C1CCC(F)(F)CC1` (single isomer, unassigned) [Example 25]: the half-maximal inhibitory concentration (IC50) was 7.94 nM.

With `Cc1nonc1C(=O)N[C@H](c1nc2c(F)c([C@@H](CC(F)(F)F)C(=O)N[C@@H](C)C(F)(F)F)ccc2[nH]1)C1CCC(F)(F)CC1` (single isomer, unassigned) [Example 26], the midpoint of inhibition, the IC50, lay at 126 nM.

Take `CCS(=O)(=O)CC[C@H](C(=O)N1CC(F)(F)C(F)(F)C1)c1ccc2[nH]c([C@@H](NC(=O)c3nonc3C)C3CCC(F)(F)CC3)nc2c1F` (single isomer, unassigned) [Example 28]: the IC50 was 3.16 nM.

Compound `CCS(=O)(=O)CC[C@@H](C(=O)N1CC(F)(F)C(F)(F)C1)c1ccc2[nH]c([C@@H](NC(=O)c3nonc3C)C3CCC(F)(F)CC3)nc2c1F` (single isomer, unassigned) [Example 29] had a half-inhibitory concentration (IC50) of 126 nM.

Take `Cc1nonc1C(=O)N[C@H](c1nc2c(F)c([C@H](CC(F)(F)F)C(=O)NCC(F)(F)F)ccc2[nH]1)C1CCC(F)(F)CC1` (single isomer, unassigned) [Example 34]: the half-inhibitory concentration (IC50) is 2.51 nM.

As for `Cc1nonc1C(=O)N[C@H](c1nc2c(F)c([C@@H](CC(F)(F)F)C(=O)NCC(F)(F)F)ccc2[nH]1)C1CCC(F)(F)CC1` (single isomer, unassigned) [Example 35], half-maximal inhibition (IC50) was put at 631 nM.

The compound `Cc1nonc1C(=O)N[C@H](c1nc2c(F)c([C@H](CC(F)(F)F)C(=O)NCC(F)F)ccc2[nH]1)C1CCC(F)(F)CC1` (single isomer, unassigned) [Example 37] had an IC50 of 15.8 nM.

Consider `Cc1nonc1C(=O)N[C@H](c1nc2c(F)c([C@@H](CC(F)(F)F)C(=O)NCC(F)F)ccc2[nH]1)C1CCC(F)(F)CC1` (single isomer, unassigned) [Example 38], for which the IC50 was 100 nM.

With `Cc1nonc1C(=O)N[C@H](c1nc2c(F)c([C@H](CC(F)F)C(=O)NCC(F)(F)F)ccc2[nH]1)C1CCC(F)(F)CC1` (single isomer, unassigned) [Example 41], the IC50 was 5.01 nM.

Regarding `Cc1nonc1C(=O)N[C@H](c1nc2c(F)c([C@@H](CC(F)F)C(=O)NCC(F)(F)F)ccc2[nH]1)C1CCC(F)(F)CC1` (single isomer, unassigned) [Example 42], the IC50 is 126 nM.

Values taken from patent US12662475B2, “Difluorocyclohexyl derivatives as IL-17 modulators” (UCB BIOPHARMA SRL, priority 2020, dated 2026).
